{"source": "patent US7820625B2", "about": "“UV-induced dermatitis inhibitor and atopic dermatitis inhibitor” (National Institute of Advanced Industrial Science and …, priority 2005, dated 2010)", "key": {"[1]": {"tested_on": "BALB/c mice (DNFB-induced dermatitis, auricle skin)", "experiment": "DNFB-induced dermatitis in mouse earlobes; amount of water evaporation (Tewameter TM300) to evaluate the barrier function of keratin", "assay_type": "in vivo", "protocol": "A 1 mg portion of glycylprolylisoleucylglycylserine (SEQ ID NO: 6) (hereinafter, also referred to as “GPIGS”) (manufactured by AMERICAN PEPTIDE COMPANY, Inc., lot. CC-09-119) was weighed. This GPIGS [SEQ ID NO: 6] was dissolved by the addition of 300 μl of Otsuka distilled water for injection (manufactured by Otsuka Pharmaceutical Co., Ltd., cat. 322134). Then, this solution was mixed with 200 μl of propylene glycol (manufactured by Wako Pure Chemical Industries, Ltd., cat. 161-05006) and 500 μl of ethanol (manufactured by Wako Pure Chemical Industries, Ltd., cat. 057-00456) to prepare 1 mg/ml GPIGS [SEQ ID NO: 6] solution (1).\nSeven-week-old mice (produced by Japan SLC. Inc, BALB/c line) were raised for 1 week and acclimatized.\nA 10 μl portion (14.5 mg) of […] (manufactured by NACALAI TESQUE, INC., cat. 135-12) (DNFB) was added to 9.7 ml of (acetone:olive oil=3:1) solution to prepare 1.5 mg/ml DNFB solution.\nA 25 μl portion of 1.5 mg/ml DNFB solution was applied five times (once a week) to each of the front and back sides of the left and right earlobes of the BALB/c mice (8-week-old).\nFrom one day after the 4th DNFB solution application, 25 μl of the drug solution was applied once a day to each of the front and back sides of the left and right earlobes (in the 5th DNFB solution application, the GPIGS [SEQ ID NO: 6] solution (1) was applied 1 hour before DNFB application). Forty-eight hours after the 5th DNFB solution application, an amount of water evaporation in the auricle surfaces was measured with Tewameter TM300 (manufactured by Courage+Khazaka electronic GmbH.) to evaluate the barrier function of keratin (1-3) (the present invention).\nThe barrier function of keratin was also evaluated on (1-1) wherein the same procedures aforementioned were performed except that a (acetone:olive oil=3:1) solution was applied instead of the DNFB solution and (1-2) (Comparative Example) wherein the same procedures aforementioned were performed except that a solution containing the GPIGS [SEQ ID NO: 6] solution (1) except for GPIGS [SEQ ID NO: 6] was used.\nAll the experiments were conducted using five mice.\nThe data in FIG. 1 are indicated with mean±standard deviation (mean±S.E.). Statistical analysis was conducted by Student's t-test (Stat View J-4.02, Abacus Concepts Inc.). A significant level less than 5% (p<0.05) means that a significant difference is present."}, "[2]": {"tested_on": "Hos:HR-1 mice (UVB-irradiated back skin)", "experiment": "UVB-irradiated mouse back skin; amount of water evaporation (Tewameter TM300) to evaluate the barrier function of keratin", "assay_type": "in vivo", "conditions": "for rate of increase in the total amount of water evaporation from the 1st day to the 10th day after UVB irradiation: 1 mg/ml ointment, increase of Comparative Example (5-2) over non-irradiated (5-1) defined as 100%", "protocol": "A GPIGS [SEQ ID NO: 6] solution (1) was prepared in the same way as in Example 1.\nMice used were 10-week-old mice (produced by Japan SLC. Inc, Hos:HR-1 line) raised for 1 week or longer in the breeding room of National Institute of Advanced Industrial Science and Technology and acclimatized.\nThe backs of the mice fixed under pentobarbital anesthesia were irradiated with 150 mJ/cm^2 UVB for 5 days (once a day) to cause skin damage. A 100 μl portion of the drug solution was applied once a day immediately after UVB irradiation to each of the skin surfaces of the backs. An amount of water evaporation in the skin surfaces of the backs was measured with Tewameter TM300 (manufactured by Courage+Khazaka electronic GmbH.) to evaluate the barrier function of keratin.\nAll the experiments were conducted using four mice.\nThe data in FIG. 2 are indicated with mean±standard deviation (mean±S.E.). Statistical analysis was conducted by Student's t-test (Stat View J-4.02, Abacus Concepts Inc.). A significant level less than 5% (p<0.05) means that a significant difference is present. In this context, the open triangle denotes (2-1) without UVB irradiation; x denotes (2-2) (Comparative Example) using a solution containing the GPIGS [SEQ ID NO: 6] solution (1) except for GPIGS [SEQ ID NO: 6]; and the solid diamond denotes Example of the present application (2-3)."}, "[3]": {"conditions": "1 mg/ml solution (water/propylene glycol/ethanol), 25 μl once a day on earlobes, 48 h after 5th DNFB application, vehicle control 13.11 (GPIGS experiment), 9.29 (IGS experiment)"}}, "note": "Where a SMILES comes first, the peptide text is derived from it. Where no end group is shown, it is not given here.", "data": [{"compound": "CC[C@H](C)[C@H](N)C(=O)NCC(=O)N[C@@H](CO)C(=O)O", "note": "[IGS, isoleucylglycylserine] (H-Ile-Gly-Ser-OH)", "values": [{"measurement": "amount of water evaporation", "setting": "[1]; [3]", "value": 5.57, "unit": "g/m^2/hr"}, {"measurement": "rate of increase in the total amount of water evaporation from the 1st day to the 10th day after UVB irradiation", "setting": "[2]", "value": 55.4, "unit": "%"}]}, {"compound": "GPIGS [GPIGS, glycylprolylisoleucylglycylserine]", "values": [{"measurement": "amount of water evaporation", "setting": "[1]; 1 mg/ml ointment (3-3), base ointment control 8.42, no DNFB 1.83", "value": 5.23, "unit": "g/m^2/hr"}, {"measurement": "amount of water evaporation", "setting": "[1]; [3]", "value": 11.30, "unit": "g/m^2/hr"}, {"measurement": "amount of water evaporation", "setting": "[1]; 3 mg/ml ointment (3-4), base ointment control 8.42, no DNFB 1.83", "value": 3.89, "unit": "g/m^2/hr"}, {"measurement": "barrier function of keratin compared with Example 1", "setting": "[1]; 3 mg/ml solution, otherwise as Example 1", "value": "more excellent barrier function of keratin"}, {"measurement": "dermatitis of each mouse", "setting": "[1]; ointment (10 mg GPIGS with Hiviswako 104, propylene glycol, diisopropanolamine, gentamycin, water), mice treated as in Examples 1 and 2", "value": "improvement"}, {"measurement": "rate of increase in the total amount of water evaporation from the 1st day to the 10th day after UVB irradiation", "setting": "[2]", "value": 82.1, "unit": "%"}, {"measurement": "amount of water evaporation compared with Comparative Example (2-2)", "setting": "[2]; 1 mg/ml solution, 100 μl once a day after 150 mJ/cm^2 UVB, following the fourth day after UVB irradiation", "value": "significantly lower"}]}]}
